Assay results from US11590139B2, “Substituted aminopurine compounds, compositions thereof, and methods of treatment therewith” (Signal Pharmaceuticals, LLC, priority 2014, dated 2023).

test system: Lox-IMVI melanoma cell line; assay: Lox-IMVI anti-proliferative assay (growth inhibition, Cell Titer-Glo); type: cell-based, human; details: Homo sapiens; IC50 activity level in the cell-based Lox-IMVI anti-proliferative assay; read-out: Activity
Summary of the method: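 Growth inhibition is assessed over 72 h in RPMI + 10% FBS at 0.2% DMSO, with ATP-based luminescence used as the viability measure. IC50 is fitted from normalized dose-response data.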

IC50 | SMILES
0.5 to 1 µM | C[C@H](CO)Nc1ncc2nc(Nc3c(F)cc(Cl)cc3Cl)n([C@H]3CC[C@@H](C(N)=O)CC3)c2n1 [Example 133, (1S,4s)-4-(8-(2,4-dichloro-6-nuorophenylamino)-2-((R)-1-hydroxypropan-2-ylamino)-9H-purin-9-yl)cyclohexanecarboxamide]
0.5 to 1 µM | NC(=O)[C@H]1CC[C@@H](n2c(Nc3c(F)cccc3Cl)nc3cnc(N[C@@H]4CCC[C@H](O)C4)nc32)CC1 [Example 350, (1S,4s)-4-(8-(2-chloro-6-fluorophenylamino)-2-((1R,3S)-3-hydroxycyclohexylamino)-9H-purin-9-yl)cyclohexanecarboxamide]
> 1 µM | NC(=O)[C@H]1CC[C@@H](n2c(Nc3c(Cl)cccc3Cl)nc3cnc(N[C@@H]4CCC[C@H](O)C4)nc32)CC1 [Example 349, (1S,4s)-4-(8-(2,6-dichlorophenylamino)-2-((1R,3S)-3-hydroxycyclohexylamino)-9H-purin-9-yl)cyclohexanecarboxamide]
0.25 to 0.5 µM | N#Cc1cc(F)c(Nc2nc3cnc(NC4CCC4)nc3n2[C@H]2CC[C@@H](C(N)=O)CC2)c(Cl)c1 [Example 393, (1s,4s)-4-(8-(2-chloro-4-cyano-6-fluorophenylamino)-2-(cyclobutylamino)-9H-purin-9-yl)cyclohexanecarboxamide]
> 1 µM | NC(=O)[C@H]1CC[C@@H](n2c(Nc3cccc(Cl)c3F)nc3cnc(NC4CCCC4)nc32)CC1 [Example 140, (1s,4s)-4-(8-(3-chloro-2-fluorophenylamino)-2-(cyclopentylamino)-9H-purin-9-yl)cyclohexanecarboxamide]
0.5 to 1 µM | NC(=O)[C@H]1CC[C@@H](n2c(Nc3c(Cl)cc(Cl)cc3Cl)nc3cnc(N[C@H]4CCOC4)nc32)CC1 [Example 87, (1R,4s)-4-(2-((S)-tetrahydrofuran-3-ylamino)-8-(2,4,6-trichlorophenylamino)-9H-purin-9-yl)cyclohexanecarboxamide]
0.5 to 1 µM | CC[C@H](C)Nc1ncc2nc(Nc3c(F)cc(F)cc3F)n([C@H]3CC[C@@H](C(N)=O)CC3)c2n1 [Example 334, (1R,4s)-4-(2-(sec-butylamino)-8-(2,4,6-trifluorophenylamino)-9H-purin-9-yl)cyclohexanecarboxamide]
> 1 µM | C[C@@H](CO)Nc1ncc2nc(Nc3c(F)cccc3F)n([C@H]3CC[C@@H](C(N)=O)CC3)c2n1 [Example 167, (1R,4s)-4-(8-(2,6-difluorophenylamino)-2-((S)-1 hydroxypropan-2-ylamino)-9H-purin-9-yl)cyclohexanecarboxamide]
0.5 to 1 µM | NC(=O)[C@H]1CC[C@@H](n2c(Nc3ccc(F)c(F)c3F)nc3cnc(NC4CCOCC4)nc32)CC1 [Example 66, (1s,4s)-4-(2-(tetrahydro-2H-pyran-4-ylamino)-8-(2,3,4-trifluorophenylamino)-9H-purin-9-yl)cyclohexanecarboxamide]
> 1 µM | CC(C)(C)OC(=O)N1CC[C@H](Nc2ncc3nc(Nc4c(F)cc(Cl)cc4F)n([C@H]4CC[C@@H](C(N)=O)CC4)c3n2)[C@H](F)C1 [Example 155, (3R,4S)-tert-butyl 4-(9-((1s,4R)-4-carbamoylcyclohexyl)-8-(4-chloro-2,6-difluorophenylamino)-9H-purin-2-ylamino)-3-fluoropiperidine-1-carboxylate]
> 1 µM | NC(=O)[C@H]1CC[C@@H](n2c(Nc3ccc(F)c(Cl)c3Cl)nc3cnc(NC4CCOCC4)nc32)CC1 [Example 81, (1s,4s)-4-(8-(2,3-dichloro-4-fluorophenylamino)-2-(tetrahydro-2H-pyran-4-ylamino)-9H-purin-9-yl)cyclohexanecarboxamide]
0.25 to 0.5 µM | NC(=O)[C@H]1CC[C@@H](n2c(Nc3c(F)cc(F)cc3F)nc3cnc(NC4CCC(F)(F)CC4)nc32)CC1 [Example 288, (1s,4s)-4-(2-(4,4-difluorocyclohexylamino)-8-(2,4,6-trifluorophenylamino)-9H-purin-9-yl)cyclohexanecarboxamide]
> 1 µM | CC[C@@H](CO)Nc1ncc2nc(Nc3c(F)ccc(F)c3F)n([C@H]3CC[C@@H](C(N)=O)CC3)c2n1 [Example 148, (1R,4s)-4-(2-((S)-1-hydroxybutan-2-ylamino)-8-(2,3,6-trifluorophenylamino)-9H-purin-9-yl)cyclohexanecarboxamide]

same assay, conditions: Homo sapiens; Lox-IMVI anti-proliferative assay, IC50 activity level; read-out: Activity

IC50 | SMILES
< 0.25 µM | C[C@@H](CO)Nc1ncc2nc(Nc3c(F)cc(F)cc3Cl)n([C@H]3CC[C@@](C)(C(N)=O)CC3)c2n1 [Example 548, (1R,4s)-4-(8-(2-chloro-4,6-difluorophenylamino)-2-((S)-1-hydroxypropan-2-ylamino)-9H-purin-9-yl)-1-methylcyclohexanecarboxamide]
< 0.25 µM | C[C@]1(C(N)=O)CC[C@@H](n2c(Nc3c(Cl)cc(F)cc3Cl)nc3cnc(NC4CCC(F)(F)CC4)nc32)CC1 [Example 526, (1s,4s)-4-(8-(2,6-dichloro-4-fluorophenylamino)-2-(4,4-difluorocyclohexylamino)-9H-purin-9-yl)-1-methylcyclohexanecarboxamide]
> 1 µM | C[C@]1(C(N)=O)CC[C@H](n2c(Nc3c(F)cc(F)cc3Cl)nc3cnc(NC4CCC(F)(F)CC4)nc32)CC1 [Example 477, (1r,4r)-4-(8-(2-chloro-4,6-difluorophenylamino)-2-(4,4-difluorocyclohexylamino)-9H-purin-9-yl)-1-methylcyclohexanecarboxamide]
> 1 µM | C[C@]1(O)CCC[C@@H](Nc2ncc3nc(Nc4c(Cl)cccc4Cl)n([C@H]4CC[C@@H](C(N)=O)CC4)c3n2)C1 [Example 424, (1S,4s)-4-(8-(2,6-dichlorophenylamino)-2-((1R,3S)-3-hydroxy-3-methylcyclohexylamino)-9H-purin-9-yl)cyclohexanecarboxamide]
< 0.25 µM | C[C@]1(C(N)=O)CC[C@@H](n2c(Nc3c(F)cc(C#N)cc3F)nc3cnc(NC4CCOCC4)nc32)CC1 [Example 524, (1s,4s)-4-(8-(4-cyano-2,6-difluorophenylamino)-2-(tetrahydro-2H-pyran-4-ylamino)-9H-purin-9-yl)-1-methylcyclohexanecarboxamide]

same assay, conditions: Homo sapiens; Lox-IMVI melanoma cell line, anti-proliferative assay; read-out: Activity (IC50 activity level)

IC50 | SMILES
< 0.25 µM | C[C@]1(C(N)=O)CC[C@@H](n2c(Nc3c(Cl)cc(Cl)cc3Cl)nc3cnc(N[C@@H]4CCOC[C@H]4F)nc32)CC1 [Example 718, (1S,4s)-4-(2-((3S,4R)-3-fluorotetrahydro-2H-pyran-4-ylamino)-8-(2,4,6-trichlorophenylamino)-9H-purin-9-yl)-1-methylcyclohexanecarboxamide]
> 1 µM | NC(=O)[C@H]1CC[C@@H](n2c(Nc3c(Cl)cc(Cl)cc3Cl)nc3cnc(N[C@@H]4CCCN(Cc5ccccc5)C4)nc32)CC1 [Example 752, (1S,4s)-4-(2-((R)-1-benzylpiperidin-3-ylamino)-8-(2,4,6-trichlorophenylamino)-9H-purin-9-yl)cyclohexanecarboxamide]
0.5 to 1 µM | C[C@]1(C(N)=O)CC[C@@H](n2c(Nc3c(Cl)cc(Cl)cc3Cl)nc3cnc(N[C@@H]4CCC[C@@H](O)C4)nc32)CC1 [Example 619, (1S,4s)-4-(2-((1R,3R)-3-hydroxycyclohexylamino)-8-(2,4,6-trichlorophenylamino)-9H-purin-9-yl)-1-methylcyclohexanecarboxamide]
